Data: patent publication US8361968B2 (Takeda Pharmaceutical Company Limited, priority 2002, dated 2013)
Numbered stars: 1 amine (or outer) side, 2 acyl side, 3 side chain; on linkers, the order of the positions; unused ones are H or OH. Square brackets hold non-standard residues; d marks the D form. Peptide text beside a SMILES is read from it. X1 = O=C([C@H](Cc1ccc2ccccc2n1)N[*:1])[*:2]; Arg(Me) = CNC(=N)NCCC[C@H](N)C(=O)O; Cha = N[C@@H](CC1CCCCC1)C(=O)O; azaGly = NNC(=O)O

The compounds below were run against hOT7T175 (Homo sapiens, UniProt Q969F8, L364H) (assay: Intracellular Ca ion level-increasing activity using FLIPR in hOT7T175/CHO). Details: relative, Metastin (1-54) = 1.
hOT7T175, sequence (Q969F8 whole entry L364H): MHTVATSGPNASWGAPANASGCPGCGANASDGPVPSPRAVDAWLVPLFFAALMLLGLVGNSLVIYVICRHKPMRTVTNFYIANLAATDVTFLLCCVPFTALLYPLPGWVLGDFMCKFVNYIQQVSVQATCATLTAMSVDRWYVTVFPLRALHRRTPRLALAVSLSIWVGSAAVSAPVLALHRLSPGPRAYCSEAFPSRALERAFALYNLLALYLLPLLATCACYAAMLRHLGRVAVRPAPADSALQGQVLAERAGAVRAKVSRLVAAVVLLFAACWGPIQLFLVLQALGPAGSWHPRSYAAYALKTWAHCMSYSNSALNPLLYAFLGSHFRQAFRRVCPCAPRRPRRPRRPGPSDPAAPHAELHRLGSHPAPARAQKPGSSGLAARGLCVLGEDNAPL
Type: cell-based
Parameters: expressed in transfected cells; host or cells: CHO/dhfr- cells, obtained from ATCC
Procedure: Assay for Intracellular Ca Ion Level-Increasing Activity Using Flipr
In accordance with the method described in JPA 2000-312590, the intracellular Ca ion level-increasing activity was measured using FLIPR.
The stable expression cell line hOT7T175 was acquired by transduction of expression plasmid pAK-rOT175 for animal cells into CHO/dhff cells, using CellPhect Transfection Kit (Amersham Pharmacia Biotech, Inc.). First, 240 μL of Buffer A (attached to CellPhect Transfection Kit) was added to 9.6 μg of plasmid DNA dissolved in 240 μl of distilled water, followed by stirring. After settling the mixture for 10 minutes, 480 μL of Buffer B (attached to CellPhect Transfection Kit) was added to the mixture, which was vigorously stirred to form DNA-containing liposomes. Then, 4×10^5 CHO/dhff cells (obtained from ATCC) were inoculated on a 60 mm Petri dish. […] After culturing the cells at 37° C. for 6 hours in 5% carbon dioxide gas, the cells were washed twice with serum-free Ham's F-12 medium and 3 ml of 15% glycerol was added to the cells in the Petri dish to treat for 2 minutes. The cells were again washed twice with serum-free Ham's F-12 medium followed by incubation in Ham's F-12 medium supplemented with 10% fetal bovine serum at 37° C. for 15 hours in 5% carbon dioxide gas. The cells were dispersed by trypsin treatment and recovered from the Petri dish. The recovered cells were inoculated on a 6-well plate in 1.25×10^4 cells/well and incubation was initiated at 37° C. in Dulbecco's modified Eagle medium (DMEM) medium (Nissui Seiyaku Co., Ltd.) containing 10% dialyzed fetal bovine serum (JRH BIOSCIENCES, Inc.) under 5% carbon dioxide gas. […] The medium was exchanged on Days 1 and 2 to remove the cells died.
The intracellular Ca ion level-increasing activity of the synthetic peptide in hOT7T175/CHO was determined using FLIPR (Molecular Devices, Inc.).
hOT7T175/CHO was subcultured in DMEM supplemented with 10% dialyzed fetal bovine serum (hereinafter abbreviated as dFBS) and provided for the experiment (hereinafter abbreviated as 10% dFBS/DMEM). The hOT7T175/CHO was suspended in 10% dFBS-DMEM in 15×10^4 cells/ml. The suspension was inoculated on a 96-well plate for FLIPR (Black Plate Clear Bottom, Coster, Inc.) at 200 μL each (3.0×10^4 cells/200 μL/well), followed by incubation at 37° C. overnight in a 5% CO2 incubator (hereinafter simply referred to as the cell plate). Then, 21 ml of HANKS/HBSS (9.8 g of HANKS, 0.35 g of sodium hydrogencarbonate, 20 ml of 1M HEPES; after adjusting the pH to 7.4 with 1N sodium hydroxide, the mixture was sterilized by filtration), 210 μl of 250 mM Probenecid and […] of fetal bovine serum (FBS) were mixed (HANKS/HBSS-Probenecid-FBS).
Furthermore, 2 vials of Fluo3-AM (50 μug/vial) were dissolved in 21 μL of dimethylsulfoxide and 21 μL of 20% Pluronic acid. The resulting solution was added to and mixed with 10 ml of HANKS/HBSS-Probenecid-FBS described above. After the culture medium was removed, the mixture was dispensed onto the cell plate in 100 μL each/well, followed by incubation at 37° C. for an hour in a 5% CO2 incubator (pigment loading). The peptide was dissolved in dimethylsulfoxide in 1×10^−3 M. The peptide solution was diluted with HANKS/HBSS containing 2.5 mM Probenecid, 0.2% BSA and 0.1% CHAPS.
For `CNC(=N)NCCC[C@H](NC(=O)[C@H](CC(C)C)NC(=O)CNC(=O)[C@H](Cc1ccccc1)NC(=O)[C@H](CO)NC(=O)[C@H](CC(N)=O)NC(=O)[C@H](Cc1c[nH]c2ccccc12)NC(=O)[C@H](CC(N)=O)NC(=O)[C@H](N)Cc1ccc(O)cc1)C(=O)N[C@@H](Cc1c[nH]c2ccccc12)C(N)=O` [Compound No. 174] (H-[dY]NWNSFGL[Arg(Me)]W-NH2), the “Specific Activity (intracellular Ca ion level-increasing activity)” value was 10. For `CC(C)C[C@H](NC(=O)NNC(=O)[C@H](Cc1ccccc1)NC(=O)[C@H](CO)NC(=O)[C@H](CC(N)=O)NC(=O)[C@H](Cc1c[nH]c2ccccc12)NC(=O)[C@H](CC(N)=O)NC(=O)[C@@H](N)Cc1ccc(O)cc1)C(=O)N[C@@H](CCCNC(=N)N)C(=O)N[C@@H](Cc1ccccc1)C(N)=O` [Compound No. 176, Tyr-Asn-Trp-Asn-Ser-Phe-AzaGly-Leu-Arg-Phe-NH2], the “Specific Activity (intracellular Ca ion level-increasing activity)” value was 5. With `CNC(=N)NCCC[C@H](NC(=O)[C@H](CC(C)C)NC(=O)NNC(=O)[C@H](Cc1ccccc1)NC(=O)[C@H](CO)NC(=O)[C@H](CC(N)=O)NC(=O)[C@H](CC1CCCCC1)NC(=O)[C@H](CC(N)=O)NC(=O)[C@H](N)Cc1ccc(O)cc1)C(=O)N[C@@H](Cc1ccccc1)C(N)=O` [Compound No. 190, D-Tyr-Asn-Cha-Asn-Ser-Phe-AzaGly-Leu-Arg(Me)-Phe-NH2] (H-[dY]N[Cha]NSF[azaGly]L[Arg(Me)]F-NH2) the “Specific Activity (intracellular Ca ion level-increasing activity)” value was 10. With `CCNC(=N)NCCC[C@H](NC(=O)[C@H](CC(C)C)NC(=O)CNC(=O)[C@H](Cc1ccccc1)NC(=O)[C@H](CO)NC(=O)[C@H](CC(N)=O)NC(=O)[C@H](Cc1c[nH]c2ccccc12)NC(=O)[C@H](CC(N)=O)NC(=O)[C@H](N)Cc1ccc(O)cc1)C(=O)N[C@@H](Cc1ccccc1)C(N)=O` [Compound No. 192] the “Specific Activity (intracellular Ca ion level-increasing activity)” value was 1. For `CCCNC(=N)NCCC[C@H](NC(=O)[C@H](CC(C)C)NC(=O)CNC(=O)[C@H](Cc1ccccc1)NC(=O)[C@H](CO)NC(=O)[C@H](CC(N)=O)NC(=O)[C@H](Cc1c[nH]c2ccccc12)NC(=O)[C@H](CC(N)=O)NC(=O)[C@H](N)Cc1ccc(O)cc1)C(=O)N[C@@H](Cc1ccccc1)C(N)=O` [Compound No. 193], the “Specific Activity (intracellular Ca ion level-increasing activity)” value was 001. For `CC(=O)NC(=N)NCCC[C@H](NC(=O)[C@H](CC(C)C)NC(=O)CNC(=O)[C@H](Cc1ccccc1)NC(=O)[C@H](CO)NC(=O)[C@H](CC(N)=O)NC(=O)[C@H](Cc1c[nH]c2ccccc12)NC(=O)[C@H](CC(N)=O)NC(=O)[C@H](N)Cc1ccc(O)cc1)C(=O)N[C@@H](Cc1ccccc1)C(N)=O` [Compound No. 194], the “Specific Activity (intracellular Ca ion level-increasing activity)” value was 1. For `CC(C)C[C@H](NC(=O)CNC(=O)[C@H](Cc1ccccc1)NC(=O)[C@H](CO)NC(=O)[C@H](CC(N)=O)NC(=O)[C@H](Cc1c[nH]c2ccccc12)NC(=O)[C@H](CC(N)=O)NC(=O)[C@@H](N)Cc1ccc(O)cc1)C(=O)N[C@@H](CCCNC(=N)N)C(=O)N[C@@H](Cc1ccc(F)c(F)c1)C(N)=O` [Compound No. 198], the “Specific Activity (intracellular Ca ion level-increasing activity)” value was 10. With `CC(C)C[C@H](NC(=O)CNC(=O)[C@H](Cc1ccccc1)NC(=O)[C@H](CO)NC(=O)[C@H](CC(N)=O)NC(=O)[C@H](Cc1c[nH]c2ccccc12)NC(=O)[C@H](CC(N)=O)NC(=O)[C@@H](N)Cc1ccc(O)cc1)C(=O)N[C@@H](CCCNC(=N)N)C(=O)N[C@@H](Cc1ccc2ccccc2n1)C(N)=O` [Compound No. 201] (H-YNWNSFGLR[X1]-NH2) the “Specific Activity (intracellular Ca ion level-increasing activity)” value was 1. With `CNC(=N)NCCC[C@H](NC(=O)[C@H](CC(C)C)NC(=O)CNC(=O)[C@H](CC1CCCCC1)NC(=O)[C@H](CO)NC(=O)[C@H](CC(N)=O)NC(=O)[C@H](Cc1c[nH]c2ccccc12)NC(=O)[C@H](CC(N)=O)NC(=O)[C@H](N)Cc1ccc(O)cc1)C(=O)N[C@@H](Cc1ccccc1)C(N)=O` [Compound No. 203, D-Tyr-Asn-Trp-Asn-Ser-Cha-Gly-Leu-Arg(Me)-Phe-NH2] (H-[dY]NWNS[Cha]GL[Arg(Me)]F-NH2) the “Specific Activity (intracellular Ca ion level-increasing activity)” value was 10.
